The values below come from patent US20140335077A1, “Compositions and Methods for the Treatment of Cancer Using IGF-IR Antagonists and MAPK/ERK Inhibitors” (priority 2013, published 2014).

Experiment [1] has as its system IGF-1R. The experiment in a line: IGF-1R degradation in MEF cells (β-arrestin knockouts, Δ1245 IGF-1R), WB. Format: cell-based, mouse. The conditions noted are these: R− MEF expressing Δ1245 IGF-1R; over 48 h. The procedure:
(§1) Protein lysates were analyzed by WB for IGF-1R and GAPDH as a loading control. […] Data correspond to the mean±SEM from three independent experiments. (B,D) Cell viability of the CP-treated cells for 48 h, in the absence (SFM) or presence of serum, was evaluated by PrestoBlue reagent. […] Data correspond to the mean±SEM from three independent experiments.
(§2) Appropriate primary antibody was incubated overnight at 4° C.

In experiment [2] the target is T1, IGF-1R (Mus musculus, UniProt Q60751).
T1 construct: MEF cells expressing full length, wild type IGF-1R; endogenous in cells; host or cells: MEF, and MEF knockout for β-arrestin1, β-arrestin2 or both
T1 sequence (Q60751 31-737 limits assumed): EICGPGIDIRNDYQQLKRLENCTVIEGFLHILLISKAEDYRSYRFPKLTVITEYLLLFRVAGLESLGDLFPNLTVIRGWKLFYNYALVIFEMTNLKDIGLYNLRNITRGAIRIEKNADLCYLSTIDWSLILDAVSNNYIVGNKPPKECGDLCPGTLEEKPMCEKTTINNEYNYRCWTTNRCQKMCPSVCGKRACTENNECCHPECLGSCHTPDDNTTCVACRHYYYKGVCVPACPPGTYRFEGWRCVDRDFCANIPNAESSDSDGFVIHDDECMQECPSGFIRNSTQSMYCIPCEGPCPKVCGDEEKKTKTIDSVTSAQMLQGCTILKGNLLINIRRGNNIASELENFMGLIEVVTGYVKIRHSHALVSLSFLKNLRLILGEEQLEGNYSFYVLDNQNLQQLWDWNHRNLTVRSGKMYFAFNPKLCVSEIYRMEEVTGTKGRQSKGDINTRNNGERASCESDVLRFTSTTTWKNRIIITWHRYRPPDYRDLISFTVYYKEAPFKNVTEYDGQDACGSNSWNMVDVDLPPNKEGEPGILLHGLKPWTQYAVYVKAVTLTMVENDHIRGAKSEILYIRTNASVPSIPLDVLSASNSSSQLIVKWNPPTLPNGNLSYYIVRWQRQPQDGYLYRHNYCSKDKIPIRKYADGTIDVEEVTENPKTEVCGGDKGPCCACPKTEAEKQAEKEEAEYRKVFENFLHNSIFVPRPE
T1 sequence (Q60751 742-1373 limits assumed): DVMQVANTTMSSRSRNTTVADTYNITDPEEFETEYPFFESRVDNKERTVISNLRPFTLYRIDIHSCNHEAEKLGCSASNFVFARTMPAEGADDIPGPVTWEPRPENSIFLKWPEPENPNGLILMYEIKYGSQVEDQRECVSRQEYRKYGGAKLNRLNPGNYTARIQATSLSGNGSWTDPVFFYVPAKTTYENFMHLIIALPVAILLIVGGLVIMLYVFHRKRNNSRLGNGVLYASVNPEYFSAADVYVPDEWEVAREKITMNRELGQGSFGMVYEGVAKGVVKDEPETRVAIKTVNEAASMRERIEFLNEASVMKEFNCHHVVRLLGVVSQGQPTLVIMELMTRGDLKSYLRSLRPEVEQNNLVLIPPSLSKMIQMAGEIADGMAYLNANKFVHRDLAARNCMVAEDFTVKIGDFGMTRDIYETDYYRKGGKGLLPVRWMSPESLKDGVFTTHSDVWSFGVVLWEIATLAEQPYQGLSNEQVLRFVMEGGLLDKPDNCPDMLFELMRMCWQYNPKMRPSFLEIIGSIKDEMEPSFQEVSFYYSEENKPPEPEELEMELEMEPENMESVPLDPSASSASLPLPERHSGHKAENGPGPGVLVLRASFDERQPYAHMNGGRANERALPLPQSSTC
The description is as above. The format is cell-based. The conditions noted are these: 24 h. The procedure: as §1, §2

The test system of experiment [3] is IGF-1R, AKT and ERK phosphorylation. The experiment in a line: IGF-1R signaling activation in ES cell lines (WB for P-IGF-1R, P-AKT, P-ERK). Format: cell-based. The conditions noted are these: serum starved ES cells.

For the substance “IGF-1: classical ligand of IGF-1R, used at 50 ng/ml for stimulation”, in experiment [1], the “Degradation of truncated IGF-1R (Δ1245)” value is “resistant”. The IGF-1R degradation result in experiment [2] (MEF without β-arr1 (β1KO or β1/2 KO)) is “almost completely abolished”; in experiment [2] (control MEF and β2KO cells (expressing β-arr1)), “drastically downregulated the receptor”. The “Time to phosphorylation of the IGF-1R activation loop” value in experiment [3] is at most 2 min.
